Test system: 967376-340-R-J2-PDC multicell spheroid viability
Assay: Anticancer human tumor 967376-340-R-J2-PDC patient-derived colon adenocarcinoma cell line growth inhibition [PI3K]
Conditions: for IC50: curve of first compound; for viability, T/C: stronger effect = lower value
How it was run: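 Tumor cells were combined with HUVEC and MSCs into spheroids, then dosed with PI3K-inhibitor combinations over half-log ranges capped near clinical Cmax or 10 microM.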

[1] = second compound 0.0316 µM, first compound 0.0316 µM
[2] = second compound 0.0316 µM, first compound 0.1 µM
[3] = second compound 0.0316 µM, first compound 0.316 µM
[4] = second compound 0.0316 µM, first compound 1 µM
[5] = second compound 0.0316 µM, first compound 3.16 µM
[6] = second compound 0.0316 µM, first compound 10 µM
[7] = second compound 0.1 µM, first compound 0.0316 µM
[8] = second compound 0.1 µM, first compound 0.1 µM
[9] = second compound 0.1 µM, first compound 0.316 µM
[10] = second compound 0.1 µM, first compound 1 µM
[11] = second compound 0.1 µM, first compound 3.16 µM
[12] = second compound 0.1 µM, first compound 10 µM
[13] = second compound 0.316 µM, first compound 0.0316 µM
[14] = second compound 0.316 µM, first compound 0.1 µM
[15] = second compound 0.316 µM, first compound 0.316 µM
[16] = second compound 0.316 µM, first compound 1 µM
[17] = second compound 0.316 µM, first compound 3.16 µM
[18] = second compound 0.316 µM, first compound 10 µM
[19] = second compound 1 µM, first compound 0.0316 µM
[20] = second compound 1 µM, first compound 0.1 µM
[21] = second compound 1 µM, first compound 0.316 µM
[22] = second compound 1 µM, first compound 1 µM
[23] = second compound 1 µM, first compound 3.16 µM
[24] = second compound 1 µM, first compound 10 µM
[25] = second compound 3.16 µM, first compound 0.0316 µM
[26] = second compound 3.16 µM, first compound 0.1 µM
[27] = second compound 3.16 µM, first compound 0.316 µM
[28] = second compound 3.16 µM, first compound 1 µM
[29] = second compound 3.16 µM, first compound 3.16 µM
[30] = second compound 3.16 µM, first compound 10 µM
[31] = second compound 10 µM, first compound 0.0316 µM
[32] = second compound 10 µM, first compound 0.1 µM
[33] = second compound 10 µM, first compound 0.316 µM
[34] = second compound 10 µM, first compound 1 µM
[35] = second compound 10 µM, first compound 3.16 µM
[36] = second compound 10 µM, first compound 10 µM
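Further: spheroids exposed to agents for 7 days before read-out.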
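Wherever viability, T/C is given: luminescence used as surrogate of cell viability.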

Question: Which results are given for C#Cc1c(F)ccc2cc(O)cc(-c3ncc4c(N5CC6CCC(C5)N6)nc(OCC56CCCN5CC(F)C6)nc4c3F)c12 (stereo unspecified) + Cc1nc(NC(=O)N2CCCC2C(N)=O)sc1-c1ccnc(C(C)(C)C(F)(F)F)c1?
Answer: IC50 (second compound 0.0316 µM): > 10 µM; IC50 (second compound 0.1 µM): > 10 µM; IC50 (second compound 0.316 µM): 9.86 µM; IC50 (second compound 1 µM): 5.16 µM; IC50 (second compound 3.16 µM): 3.53 µM; IC50 (second compound 10 µM): < 0.0316 µM; viability, T/C [1]: 104%; viability, T/C [2]: 85.6%; viability, T/C [3]: 81.8%; viability, T/C [4]: 82.7%; viability, T/C [5]: 80.7%; viability, T/C [6]: 68%; viability, T/C [7]: 103%; viability, T/C [8]: 81.7%; viability, T/C [9]: 82.3%; viability, T/C [10]: 70.4%; viability, T/C [11]: 80.8%; viability, T/C [12]: 69.6%; viability, T/C [13]: 64.3%; viability, T/C [14]: 90%; viability, T/C [15]: 74.5%; viability, T/C [16]: 69.8%; viability, T/C [17]: 78.5%; viability, T/C [18]: 49.8%; viability, T/C [19]: 65.1%; viability, T/C [20]: 68.3%; viability, T/C [21]: 72.5%; viability, T/C [22]: 66.8%; viability, T/C [23]: 60.3%; viability, T/C [24]: 35.5%; viability, T/C [25]: 47.6%; viability, T/C [26]: 75.2%; viability, T/C [27]: 59%; viability, T/C [28]: 59.5%; viability, T/C [29]: 49.3%; viability, T/C [30]: 34.9%; viability, T/C [31]: 47.2%; viability, T/C [32]: 41.7%; viability, T/C [33]: 51.5%; viability, T/C [34]: 37.3%; viability, T/C [35]: 36.1%; viability, T/C [36]: 16.9%

Question: Which IC50 (second compound 0.0316 µM) does the source give for C=CC(=O)N1CCN(c2nc(=O)n(-c3c(C)ccnc3C(C)C)c3nc(-c4c(O)cccc4F)c(F)cc23)C(C)C1 (stereo unspecified) + Cc1nc(NC(=O)N2CCCC2C(N)=O)sc1-c1ccnc(C(C)(C)C(F)(F)F)c1 here?
Answer: > 10 µM

Question: What about the IC50 (second compound 0.1 µM) of the same molecule?
Answer: > 10 µM

Question: What about the IC50 (second compound 0.316 µM) of the same molecule?
Answer: > 10 µM

Question: And the IC50 (second compound 1 µM)?
Answer: > 10 µM

Question: And the IC50 (second compound 3.16 µM)?
Answer: > 10 µM

Question: What about the IC50 (second compound 10 µM) of the same molecule?
Answer: < 0.0316 µM

Question: And the viability, T/C [1]?
Answer: 85.5%

Question: What about the viability, T/C [2] of the same molecule?
Answer: 85.2%

Question: And the viability, T/C [3]?
Answer: 86.6%

Question: What about the viability, T/C [4] of the same molecule?
Answer: 84.6%

Question: What about the viability, T/C [5] of the same molecule?
Answer: 91.7%

Question: What about the viability, T/C [6] of the same molecule?
Answer: 102%

Question: And the viability, T/C [7]?
Answer: 91.9%

Question: What about the viability, T/C [8] of the same molecule?
Answer: 85.8%

Question: What about the viability, T/C [9] of the same molecule?
Answer: 75.6%

Question: What about the viability, T/C [10] of the same molecule?
Answer: 84.6%

Question: And the viability, T/C [11]?
Answer: 100%

Question: And the viability, T/C [12]?
Answer: 74%

Question: What about the viability, T/C [13] of the same molecule?
Answer: 73.3%

Question: What about the viability, T/C [14] of the same molecule?
Answer: 74.5%

Question: And the viability, T/C [15]?
Answer: 62.5%

Question: And the viability, T/C [16]?
Answer: 94%

Question: What about the viability, T/C [17] of the same molecule?
Answer: 91.3%

Question: And the viability, T/C [18]?
Answer: 69.8%

Question: What about the viability, T/C [19] of the same molecule?
Answer: 65.5%

Question: And the viability, T/C [20]?
Answer: 65.7%

Question: And the viability, T/C [21]?
Answer: 57.3%

Question: What about the viability, T/C [22] of the same molecule?
Answer: 66.6%

Question: And the viability, T/C [23]?
Answer: 66.1%

Question: What about the viability, T/C [24] of the same molecule?
Answer: 76.5%

Question: And the viability, T/C [25]?
Answer: 61%

Question: And the viability, T/C [26]?
Answer: 52.9%

Question: And the viability, T/C [27]?
Answer: 64.4%

Question: And the viability, T/C [28]?
Answer: 56.8%

Question: And the viability, T/C [29]?
Answer: 77.7%

Question: And the viability, T/C [30]?
Answer: 53.3%

Question: What about the viability, T/C [31] of the same molecule?
Answer: 46.9%

Question: What about the viability, T/C [32] of the same molecule?
Answer: 44.7%

Question: What about the viability, T/C [33] of the same molecule?
Answer: 44.9%

Question: And the viability, T/C [34]?
Answer: 56.3%

Question: What about the viability, T/C [35] of the same molecule?
Answer: 48.7%

Question: What about the viability, T/C [36] of the same molecule?
Answer: 42%

Question: CC(Cn1ccc(-c2ccc(C#N)c(Cl)c2)n1)NC(=O)c1cc(C(C)O)[nH]n1 (stereo unspecified) + Cc1nc(NC(=O)N2CCCC2C(N)=O)sc1-c1ccnc(C(C)(C)C(F)(F)F)c1 was tested. Which IC50 (second compound 0.0316 µM) did it give?
Answer: > 10 µM

Question: And the IC50 (second compound 0.1 µM)?
Answer: > 10 µM

Question: What about the IC50 (second compound 0.316 µM) of the same molecule?
Answer: > 10 µM

Question: And the IC50 (second compound 1 µM)?
Answer: > 10 µM

Question: What about the IC50 (second compound 3.16 µM) of the same molecule?
Answer: > 10 µM

Question: What about the IC50 (second compound 10 µM) of the same molecule?
Answer: > 10 µM

Question: And the viability, T/C [1]?
Answer: 90.6%

Question: And the viability, T/C [2]?
Answer: 118%

Question: And the viability, T/C [3]?
Answer: 104%

Question: And the viability, T/C [4]?
Answer: 93.9%

Question: And the viability, T/C [5]?
Answer: 109%

Question: What about the viability, T/C [6] of the same molecule?
Answer: 102%

Question: And the viability, T/C [7]?
Answer: 95.1%

Question: What about the viability, T/C [8] of the same molecule?
Answer: 103%

Question: And the viability, T/C [9]?
Answer: 91.6%

Question: And the viability, T/C [10]?
Answer: 100%

Question: And the viability, T/C [11]?
Answer: 92.9%

Question: What about the viability, T/C [12] of the same molecule?
Answer: 119%

Question: What about the viability, T/C [13] of the same molecule?
Answer: 69.3%

Question: What about the viability, T/C [14] of the same molecule?
Answer: 94.3%

Question: And the viability, T/C [15]?
Answer: 95%

Question: What about the viability, T/C [16] of the same molecule?
Answer: 92.7%

Question: What about the viability, T/C [17] of the same molecule?
Answer: 102%

Question: And the viability, T/C [18]?
Answer: 73.8%

Question: What about the viability, T/C [19] of the same molecule?
Answer: 58%

Question: What about the viability, T/C [20] of the same molecule?
Answer: 66.8%

Question: What about the viability, T/C [21] of the same molecule?
Answer: 75.2%

Question: What about the viability, T/C [22] of the same molecule?
Answer: 72.5%

Question: What about the viability, T/C [23] of the same molecule?
Answer: 83.5%

Question: And the viability, T/C [24]?
Answer: 65.7%

Question: And the viability, T/C [25]?
Answer: 54.4%

Question: What about the viability, T/C [26] of the same molecule?
Answer: 62.3%

Question: And the viability, T/C [27]?
Answer: 61.5%

Question: And the viability, T/C [28]?
Answer: 52.5%

Question: What about the viability, T/C [29] of the same molecule?
Answer: 62.9%

Question: And the viability, T/C [30]?
Answer: 73.7%

Question: What about the viability, T/C [31] of the same molecule?
Answer: 57.3%

Question: And the viability, T/C [32]?
Answer: 58.4%

Question: And the viability, T/C [33]?
Answer: 43.3%

Question: And the viability, T/C [34]?
Answer: 60.9%

Question: And the viability, T/C [35]?
Answer: 72.1%

Question: And the viability, T/C [36]?
Answer: 48.2%
